Test results as given in US12077503B2, “Substituted cyclic amides and their use as herbicides” (FMC CORPORATION, priority 2015, dated 2024).
Read-outs that look alike come from different tables or passages of the source.

Legend:
Assay type in all cases: in vivo
[1] = tested on: pigweed (Amaranthus retroflexus); assay: Test A postemergence; conditions: Amaranthus retroflexus, post-emergence, 240 h, 125 g ai/ha, postemergence
Outline: (§1)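 Compounds were formulated in a non-phytotoxic solvent mixture with surfactant and applied as a preemergence directed soil spray after seeding, or sprayed postemergence over plants 2 to 10 cm tall at the one- to two-leaf stage. Evaluation after about 10 d compared treated with untreated controls, using a scale from 0 (no effect) to 100 (complete control).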

[2] = tested on: ryegrass, Italian (Italian ryegrass, Lolium multiflorum); assay: Test A postemergence; conditions: Lolium multiflorum, post-emergence, 240 h, 125 g ai/ha, postemergence
Outline: as §1

[3] = tested on: giant foxtail (Setaria faberii); assay: Test A postemergence; conditions: Setaria faberi, post-emergence, 240 h, postemergence; for pest or weed control at 125 g/ha: 125 g ai/ha
Outline: as §1

[4] = tested on: wheat (Triticum aestivum); assay: Test A postemergence; conditions: Triticum aestivum, post-emergence, 240 h, 125 g ai/ha, postemergence
Outline: as §1

[5] = tested on: blackgrass (Alopecurus myosuroides); assay: Test A postemergence; conditions: Alopecurus myosuroides, post-emergence, 240 h, postemergence; for pest or weed control at 125 g/ha: 125 g ai/ha
Outline: as §1

[6] = tested on: Galium (catchweed bedstraw, Galium aparine); assay: Test A postemergence; conditions: Galium, post-emergence, 240 h, postemergence; for pest or weed control at 125 g/ha: 125 g ai/ha
Outline: as §1

[7] = tested on: Kochia (Kochia scoparia); assay: Test A postemergence; conditions: Bassia scoparia, post-emergence, 240 h, postemergence; for pest or weed control at 125 g/ha: 125 g ai/ha
Outline: as §1

[8] = tested on: corn (Zea mays); assay: Test A postemergence; conditions: Zea mays, post-emergence, 240 h, postemergence; for plant injury at 125 g/ha: 125 g ai/ha
Outline: as §1

[9] = tested on: ragweed (common ragweed, Ambrosia elatior); assay: Test A postemergence; conditions: Ambrosia artemisiifolia, post-emergence, 240 h, 125 g ai/ha, postemergence
Outline: as §1

[10] = tested on: barnyardgrass (Echinochloa crus-galli); assay: Test A postemergence; conditions: Echinochloa crus-galli, post-emergence, 240 h, postemergence; for pest or weed control at 125 g/ha: 125 g ai/ha
Outline: as §1

[11] = tested on: pigweed (Amaranthus retroflexus); assay: Test A preemergence; conditions: Amaranthus retroflexus, pre-emergence, 240 h; for pest or weed control at 125 g/ha: 125 g ai/ha; for pest or weed control at 500 g/ha: 500 g ai/ha
[12] = tested on: ryegrass, Italian (Italian ryegrass, Lolium multiflorum); assay: Test A preemergence; conditions: Lolium multiflorum, pre-emergence, 240 h; for pest or weed control at 125 g/ha: 125 g ai/ha; for pest or weed control at 500 g/ha: 500 g ai/ha
Outline: as §1

[13] = tested on: Kochia (Kochia scoparia); assay: Test A preemergence; conditions: Bassia scoparia, pre-emergence, 240 h; for pest or weed control at 125 g/ha: 125 g ai/ha; for pest or weed control at 500 g/ha: 500 g ai/ha
Outline: as §1

[14] = tested on: ragweed (common ragweed, Ambrosia elatior); assay: Test A preemergence; conditions: Ambrosia artemisiifolia, pre-emergence, 240 h; for pest or weed control at 125 g/ha: 125 g ai/ha; for pest or weed control at 500 g/ha: 500 g ai/ha
Outline: as §1

[15] = tested on: barnyardgrass (Echinochloa crus-galli); assay: Test A preemergence; conditions: Echinochloa crus-galli, pre-emergence, 240 h; for pest or weed control at 125 g/ha: 125 g ai/ha; for pest or weed control at 500 g/ha: 500 g ai/ha
Outline: as §1

CN1C[C@H](c2cccc(COC(F)F)c2)[C@@H](C(=O)Nc2cccc(F)c2F)C1=O [Compound 873]
pest or weed control at 125 g/ha ([1]; visual injury rating after approximately 10 d, read-out: Pigweed plant response rating (0 to 100 scale, 0 no effect, 100 complete control)): 30% | pest or weed control at 125 g/ha ([2]; visual injury rating after approximately 10 d, read-out: Ryegrass, Italian plant response rating (0 to 100 scale, 0 no effect, 100 complete control)): 40% | pest or weed control at 125 g/ha ([3]; visual injury rating after approximately 10 d, read-out: Foxtail, Giant plant response rating (0 to 100 scale, 0 no effect, 100 complete control)): 90% | plant injury at 125 g/ha ([4]; visual injury rating after approximately 10 d, read-out: Wheat plant response rating (0 to 100 scale, 0 no effect, 100 complete control)): 30% | pest or weed control at 125 g/ha ([5]; visual injury rating after approximately 10 d, read-out: Blackgrass plant response rating (0 to 100 scale, 0 no effect, 100 complete control)): 50% | pest or weed control at 125 g/ha ([6]; visual injury rating after approximately 10 d, read-out: Galium plant response rating (0 to 100 scale, 0 no effect, 100 complete control)): 50% | pest or weed control at 125 g/ha ([7]; visual injury rating after approximately 10 d, read-out: Kochia plant response rating (0 to 100 scale, 0 no effect, 100 complete control)): 60% | plant injury at 125 g/ha ([8]; visual injury rating after approximately 10 d, read-out: Corn plant response rating (0 to 100 scale, 0 no effect, 100 complete control)): 70% | pest or weed control at 125 g/ha ([9]; visual injury rating after approximately 10 d, read-out: Ragweed plant response rating (0 to 100 scale, 0 no effect, 100 complete control)): 30% | pest or weed control at 125 g/ha ([10]; visual injury rating after approximately 10 d, read-out: Barnyardgrass plant response rating (0 to 100 scale, 0 no effect, 100 complete control)): 90% | pest or weed control at 125 g/ha ([11]; preemergence, 0 to 100 scale where 0 is no effect and 100 is complete control, read-out: Pigweed plant response rating): 40% | pest or weed control at 500 g/ha ([11]; Preemergence, visual injury vs untreated controls after approximately 10 d, read-out: Pigweed plant response rating (0 to 100 scale where 0 is no effect and 100 is complete control)): 50% | pest or weed control at 125 g/ha ([12]; preemergence, 0 to 100 scale where 0 is no effect and 100 is complete control, read-out: Ryegrass, Italian plant response rating): 50% | pest or weed control at 500 g/ha ([12]; Preemergence, visual injury vs untreated controls after approximately 10 d, read-out: Ryegrass, Italian plant response rating (0 to 100 scale where 0 is no effect and 100 is complete control)): 80% | pest or weed control at 125 g/ha ([13]; preemergence, 0 to 100 scale where 0 is no effect and 100 is complete control, read-out: Kochia plant response rating): 80% | pest or weed control at 500 g/ha ([13]; Preemergence, visual injury vs untreated controls after approximately 10 d, read-out: Kochia plant response rating (0 to 100 scale where 0 is no effect and 100 is complete control)): 90% | pest or weed control at 125 g/ha ([14]; preemergence, 0 to 100 scale where 0 is no effect and 100 is complete control, read-out: Ragweed plant response rating): 40% | pest or weed control at 500 g/ha ([14]; Preemergence, visual injury vs untreated controls after approximately 10 d, read-out: Ragweed plant response rating (0 to 100 scale where 0 is no effect and 100 is complete control)): 90% | pest or weed control at 125 g/ha ([15]; preemergence, 0 to 100 scale where 0 is no effect and 100 is complete control, read-out: Barnyardgrass plant response rating): 90% | pest or weed control at 500 g/ha ([15]; Preemergence, visual injury vs untreated controls after approximately 10 d, read-out: Barnyardgrass plant response rating (0 to 100 scale where 0 is no effect and 100 is complete control)): 90%

O=C(Nc1ccccc1C(F)(F)F)[C@H]1C(=S)NC[C@@H]1c1ccc(C(F)(F)F)cc1 (racemic) [Compound 1049]
pest or weed control at 125 g/ha ([1]; visual injury on 0 to 100 scale (0 no effect, 100 complete control), approx. 10 d, read-out: Pigweed plant response rating): 10% | pest or weed control at 125 g/ha ([2]; visual injury on 0 to 100 scale (0 no effect, 100 complete control), approx. 10 d, read-out: Ryegrass, Italian plant response rating): 0% | pest or weed control at 125 g/ha ([3]; visual injury on 0 to 100 scale (0 no effect, 100 complete control), approx. 10 d, read-out: Foxtail, Giant plant response rating): 70% | pest or weed control at 500 g/ha ([3]; 500 g ai/ha, visual injury, 0 to 100 scale (0 no effect, 100 complete control), approx. 10 d, read-out: Plant response rating, Foxtail, Giant): 80% | plant injury at 125 g/ha ([4]; visual injury on 0 to 100 scale (0 no effect, 100 complete control), approx. 10 d, read-out: Wheat plant response rating): 0% | pest or weed control at 125 g/ha ([5]; visual injury on 0 to 100 scale (0 no effect, 100 complete control), approx. 10 d, read-out: Blackgrass plant response rating): 0% | pest or weed control at 500 g/ha ([5]; 500 g ai/ha, visual injury, 0 to 100 scale (0 no effect, 100 complete control), approx. 10 d, read-out: Plant response rating, Blackgrass): 0% | pest or weed control at 125 g/ha ([6]; visual injury on 0 to 100 scale (0 no effect, 100 complete control), approx. 10 d, read-out: Galium plant response rating): 0% | pest or weed control at 500 g/ha ([6]; 500 g ai/ha, visual injury, 0 to 100 scale (0 no effect, 100 complete control), approx. 10 d, read-out: Plant response rating, Galium): 40% | pest or weed control at 125 g/ha ([7]; visual injury on 0 to 100 scale (0 no effect, 100 complete control), approx. 10 d, read-out: Kochia plant response rating): 0% | pest or weed control at 500 g/ha ([7]; 500 g ai/ha, visual injury, 0 to 100 scale (0 no effect, 100 complete control), approx. 10 d, read-out: Plant response rating, Kochia): 30% | plant injury at 125 g/ha ([8]; visual injury on 0 to 100 scale (0 no effect, 100 complete control), approx. 10 d, read-out: Corn plant response rating): 0% | Corn plant response rating (crop injury, 0 = no effect, 100 = complete kill) at 500 g/ha ([8]; 500 g ai/ha, visual injury, 0 to 100 scale (0 no effect, 100 complete control), approx. 10 d): 0% | pest or weed control at 125 g/ha ([9]; visual injury on 0 to 100 scale (0 no effect, 100 complete control), approx. 10 d, read-out: Ragweed plant response rating): 0% | pest or weed control at 125 g/ha ([10]; visual injury on 0 to 100 scale (0 no effect, 100 complete control), approx. 10 d, read-out: Barnyardgrass plant response rating): 30% | pest or weed control at 500 g/ha ([10]; 500 g ai/ha, visual injury, 0 to 100 scale (0 no effect, 100 complete control), approx. 10 d, read-out: Plant response rating, Barnyardgrass): 50% | pest or weed control at 125 g/ha ([11]; Preemergence, visual injury rating after approximately 10 d, read-out: Pigweed plant response rating (0 to 100 scale, 0 is no effect, 100 is complete control)): 0% | pest or weed control at 500 g/ha ([11]; preemergence, visual injury rating about 10 d after treatment, 0 to 100 scale (0 no effect, 100 complete control), read-out: Pigweed plant response rating): 60% | pest or weed control at 125 g/ha ([12]; Preemergence, visual injury rating after approximately 10 d, read-out: Ryegrass, Italian plant response rating (0 to 100 scale, 0 is no effect, 100 is complete control)): 0% | pest or weed control at 500 g/ha ([12]; preemergence, visual injury rating about 10 d after treatment, 0 to 100 scale (0 no effect, 100 complete control), read-out: Ryegrass, Italian plant response rating): 30% | pest or weed control at 125 g/ha ([13]; Preemergence, visual injury rating after approximately 10 d, read-out: Kochia plant response rating (0 to 100 scale, 0 is no effect, 100 is complete control)): 30% | pest or weed control at 500 g/ha ([13]; preemergence, visual injury rating about 10 d after treatment, 0 to 100 scale (0 no effect, 100 complete control), read-out: Kochia plant response rating): 70% | pest or weed control at 125 g/ha ([14]; Preemergence, visual injury rating after approximately 10 d, read-out: Ragweed plant response rating (0 to 100 scale, 0 is no effect, 100 is complete control)): 20% | pest or weed control at 500 g/ha ([14]; preemergence, visual injury rating about 10 d after treatment, 0 to 100 scale (0 no effect, 100 complete control), read-out: Ragweed plant response rating): 40% | pest or weed control at 125 g/ha ([15]; Preemergence, visual injury rating after approximately 10 d, read-out: Barnyardgrass plant response rating (0 to 100 scale, 0 is no effect, 100 is complete control)): 30% | pest or weed control at 500 g/ha ([15]; preemergence, visual injury rating about 10 d after treatment, 0 to 100 scale (0 no effect, 100 complete control), read-out: Barnyardgrass plant response rating): 70%
